Source: patent US20230159453A1 (COCRYSTAL PHARMA, INC., priority 2020, published 2023)
Values joined by “and” are separate entries in the source; they are usually repeats but may differ in a detail not shown here. Equal entries are not always repeated.

molecular target: SARS2 protease (Severe acute respiratory syndrome coronavirus 2, UniProt P0DTD1); test: SARS-CoV-2 protease inhibition assay (SARS2 FRET protease assay); type: biochemical; conditions: SARS-CoV-2 protease 25 nM, FRET, peptide substrate 1.3 μM, 30 minutes at 30° C., compounds 20 μM to 1.0 nM; read-out: IC50

SMILES	IC50
CCCCCCCOC(=O)N[C@@H](CC1CCCCC1)C(=O)N[C@@H](CCC(=O)N1CCOc2ccccc2C1)C(O)P(=O)(OCC)OCC (stereo partly drawn) [Compound C14, Heptyl ((2S)-3-cyclohexyl-1-(((2S)-1-(diethoxyphosphoryl)-5-(2,3-dihydrobenzo[f][1,4]oxazepin-4(5H)-yl)-1-hydroxy-5-oxopentan-2-yl)amino)-1-oxopropan-2-yl)carbamate]	> 200 µM
O=C[C@H](CCC(=O)N1CCOc2ccc(Cl)cc2C1)NC(=O)[C@H](CC1CCCCC1)NC(=O)OCc1cccc(Cl)c1 [Compound C15, 3-Chlorobenzyl ((S)-1-(((S)-5-(7-chloro-2,3-dihydrobenzo[f][1,4]oxazepin-4(5H)-yl)-1,5-dioxopentan-2-yl)amino)-3-cyclohexyl-1-oxopropan-2-yl)carbamate]	> 200 µM
CCCCCOC(=O)N[C@@H](CC1CCCCC1)C(=O)N[C@H](C=O)CCC(=O)N1CCOc2ccccc2C1 [Compound C16, Pentyl ((S)-3-cyclohexyl-1-(((S)-5-(2,3-dihydrobenzo[f][1,4]oxazepin-4(5H)-yl)-1,5-dioxopentan-2-yl)amino)-1-oxopropan-2-yl)carbamate]	37.8 µM
CN(C(=O)CC[C@@H](C=O)NC(=O)[C@H](CC1CCCCC1)NC(=O)OCc1cccc(Cl)c1)C1(Cc2ccccc2)CC1 [Compound C17, 3-Chlorobenzyl ((S)-1-(((S)-5-((1-benzylcyclopropyl)(methyl)amino)-1,5-dioxopentan-2-yl)amino)-3-cyclohexyl-1-oxopropan-2-yl)carbamate]	2.7 µM
CCCOC(=O)N[C@@H](CC1CCCCC1)C(=O)N[C@H](C=O)CCC(=O)N1CCOc2ccccc2C1 [Compound C18, Propyl ((S)-3-cyclohexyl-1-(((S)-5-(2,3-dihydrobenzo[f][1,4]oxazepin-4(5H)-yl)-1,5-dioxopentan-2-yl)amino)-1-oxopropan-2-yl)carbamate]	49.3 µM
CCCOC(=O)N[C@@H](CC1CCCCC1)C(=O)N[C@@H](CCC(=O)N1CCOc2ccccc2C1)C(O)P(=O)(OCC)OCC (stereo partly drawn) [Compound C19, Propyl ((2S)-3-cyclohexyl-1-(((2S)-1-(diethoxyphosphoryl)-5-(2,3-dihydrobenzo[f][1,4]oxazepin-4(5H)-yl)-1-hydroxy-5-oxopentan-2-yl)amino)-1-oxopropan-2-yl)carbamate]	94.3 µM
CC(C)(C)OC(=O)N1CCN(C(=O)CC[C@@H](C=O)NC(=O)[C@H](CC2CCCCC2)NC(=O)OCc2cccc(Cl)c2)CC1c1ccccc1 (stereo partly drawn) [Compound C20, tert-butyl 4-((S)-4-((S)-2-((((3-chlorobenzyl)oxy)carbonyl)amino)-3-cyclohexylpropanamido)-5-oxopentanoyl)-2-phenylpiperazine-1-carboxylate]	> 200 µM
CCOP(=O)(OCC)C(O)[C@H](CCC(=O)N1CCOc2ccccc2C1)NC(=O)[C@H](CC1CCCCC1)NC(=O)N1CCc2ccccc21 (stereo partly drawn) [Compound C21, Diethyl ((2S)-2-((S)-3-cyclohexyl-2-(indoline-1-carboxamido)propanamido)-5-(2,3-dihydrobenzo[f][1,4]oxazepin-4(5H)-yl)-1-hydroxy-5-oxopentyl)phosphonate]	> 200 µM
CN(C)C(=O)CC[C@@H](C=O)NC(=O)C(CC(C)(C)C)NC(=O)OCc1cccc(Cl)c1 (stereo partly drawn) [Compound C22, 3-Chlorobenzyl (1-(((S)-5-(dimethylamino)-1,5-dioxopentan-2-yl)amino)-4,4-dimethyl-1-oxopentan-2-yl)carbamate]	3.8 µM
CC(C)(C)OC(=O)N1CCC(OC(=O)N[C@@H](CC2CCCCC2)C(=O)N[C@H](C=O)CCC(=O)N2CCOc3ccccc3C2)CC1 [Compound C23, Tert-butyl 4-((((S)-3-cyclohexyl-1-(((S)-5-(2,3-dihydrobenzo[f][1, 4]oxazepin-4(5H)-yl)-1,5-dioxopentan-2-yl)amino)-1-oxopropan-2-yl)carbamoyl)oxy)piperidine-1-carboxylate]	> 200 µM
CCCCCCCOC(=O)N[C@@H](CC1CCCCC1)C(=O)N[C@H](C=O)CCC(=O)N1CCOc2ccccc2C1 [Compound C24, Heptyl ((S)-3-cyclohexyl-1-(((S)-5-(2,3-dihydrobenzo[f][1,4]oxazepin-4(5H)-yl)-1,5-dioxopentan-2-yl)amino)-1-oxopropan-2-yl)carbamate]	> 200 µM
CC(OC(=O)N[C@@H](CC1CCCCC1)C(=O)N[C@H](C=O)CCC(=O)N(C)CCc1ccccc1)c1cccc(Cl)c1 (stereo partly drawn) [Compound C25]	11.1 µM
CCCCCCOC(=O)N[C@@H](CC1CCCCC1)C(=O)N[C@H](C=O)CCC(=O)N1CCOc2ccccc2C1 [Compound C26, Hexyl ((S)-3-cyclohexyl-1-(((S)-5-(2,3-dihydrobenzo[f][1,4]oxazepin-4(5H)-yl)-1,5-dioxopentan-2-yl)amino)-1-oxopropan-2-yl)carbamate]	> 200 µM
O=C[C@H](CC1CCN(CCc2ccccc2)C1=O)NC(=O)[C@H](CC1CCCCC1)NC(=O)OCc1cccc(Cl)c1 (stereo partly drawn) [Compound C27, 3-Chlorobenzyl ((2S)-3-cyclohexyl-1-oxo-1-((1-oxo-3-(2-oxo-1-phenethylpyrrolidin-3-yl)propan-2-yl)amino)propan-2-yl) carbamate]	> 200 µM
CCOP(=O)(OCC)C(O)[C@H](CCC(=O)N1CCOc2ccccc2C1)NC(=O)[C@H](CC1CCCCC1)NC(=O)OC1CCN(S(C)(=O)=O)CC1 (stereo partly drawn) [Compound C28, 1-(Methylsulfonyl) piperidin-4-yl((2S)-3-cyclohexyl-1-(((2S)-1-(diethoxyphosphoryl)-5-(2,3-dihydrobenzo[f][1,4]oxazepin-4(5H)-yl)-1-hydroxy-5-oxopentan-2-yl)amino)-1-oxopropan-2-yl)carbamate]	> 200 µM
CC(C[C@@H](C=O)NC(=O)[C@H](CC1CCCCC1)NC(=O)OCc1cccc(Cl)c1)C(=O)N1CCOc2ccccc2C1 (stereo partly drawn) [Compound C29, 3-Chlorobenzyl ((2S)-3-cyclohexyl-1-(((2S)-5-(2,3-dihydrobenzo[f][1,4]oxazepin-4(5H)-yl)-4-methyl-1,5-dioxopentan-2-yl)amino)-1-oxopropan-2-yl)carbamate]	> 200 µM
CS(=O)(=O)N1CCC(OC(=O)N[C@@H](CC2CCCCC2)C(=O)N[C@H](C=O)CCC(=O)N2CCOc3ccccc3C2)CC1 [Compound C30, 1-(Methylsulfonyl) piperidin-4-yl((S)-3-cyclohexyl-1-(((S)-5-(2,3-dihydrobenzo[f][1,4]oxazepin-4(5H)-yl)-1,5-dioxopentan-2-yl)amino)-1-oxopropan-2-yl)carbamate]	42.3 µM
CCOP(=O)(OCC)C(O)[C@H](CCC(=O)N1CCOc2ccccc2C1)NC(=O)[C@H](CC1CCCCC1)NC(=O)N(C)Cc1cccc(Cl)c1 (stereo partly drawn) [Compound C31, Diethyl ((2S)-2-((S)-2-(3-(3-chlorobenzyl)-3-methylureido)-3-cyclohexylpropanamido)-5-(2,3-dihydrobenzo[f][1,4]oxazepin-4(5H)-yl)-1-hydroxy-5-oxopentyl)phosphonate]	> 200 µM
CC(=O)N1CCC2(CC1)CC(CC(C=O)NC(=O)[C@H](CC1CCCCC1)NC(=O)OCc1cccc(Cl)c1)C(=O)N2 (stereo partly drawn) [Compound C32, 3-Chlorobenzyl ((2S)-1-((1-(8-acetyl-2-oxo-1,8-diazaspiro[4.5]decan-3-yl)-3-oxopropan-2-yl)amino)-3-cyclohexyl-1-oxopropan-2-yl)carbamate]	0.023 µM
O=C[C@H](CCC(=O)NC1(Cc2ccccc2)CC1)NC(=O)[C@H](CC1CCCCC1)NC(=O)OCc1cccc(Cl)c1 [Compound C33, 3-Chlorobenzyl ((S)-1-(((S)-5-((1-benzylcyclopropyl)amino)-1,5-dioxopentan-2-yl)amino)-3-cyclohexyl-1-oxopropan-2-yl)carbamate]	> 200 µM
CC(C)C[C@H](NC(=O)OC1CCN(C(=O)OC(C)(C)C)CC1)C(=O)N[C@H](C=O)C[C@@H]1CCNC1=O [Compound C34, Tert-butyl 4-((((S)-4-methyl-1-oxo-1-(((S)-1-oxo-3-((S)-2-oxopyrrolidin-3-yl)propan-2-yl)amino)pentan-2-yl)carbamoyl)oxy) piperidine-1-carboxylate]	0.1 µM
CN(Cc1cccc(Cl)c1)C(=O)N[C@@H](CC1CCCCC1)C(=O)N[C@H](C=O)CCC(=O)N1CCOc2ccccc2C1 [Compound C35, (S)-2-(3-(3-Chlorobenzyl)-3-methylureido)-3-cyclohexyl-N—((S)-5-(2,3-dihydrobenzo[f][1,4]oxazepin-4(5H)-yl)-1,5-dioxopentan-2-yl)propanamide]	18.9 µM
CCOP(=O)(OCC)C(O)[C@H](CC1CCNC1=O)NC(=O)[C@H](Cc1ccccc1)NC(=O)OCc1cccc(Cl)c1 (stereo partly drawn) [Compound C36]	2.5 µM
CC(C)C[C@H](NC(=O)N(Cc1ccccc1)C1CCN(C(=O)OC(C)(C)C)CC1)C(=O)N[C@H](C=O)C[C@@H]1CCNC1=O [Compound C37, Tert-butyl 4-(1-benzyl-3-((S)-4-methyl-1-oxo-1-(((S)-1-oxo-3-((S)-2-oxopyrrolidin-3-yl)propan-2-yl)amino)pentan-2-yl)ureido)piperidine-1-carboxylate]	0.137 µM and 0.262 µM
CC(C)C[C@H](NC(=O)OC(Cc1ccccc1)c1ccccc1)C(=O)N[C@H](C=O)C[C@@H]1CCNC1=O (stereo partly drawn) [Compound C38, 1,2-Diphenylethyl ((S)-4-methyl-1-oxo-1-(((S)-1-oxo-3-((S)-2-oxopyrrolidin-3-yl)propan-2-yl)amino)pentan-2-yl)carbamate]	0.016 µM
CC(C)C[C@H](NC(=O)OC(C)Cc1ccccc1)C(=O)N[C@H](C=O)C[C@@H]1CCNC1=O (stereo partly drawn) [Compound C39, 1-Phenylpropan-2-yl ((S)-4-methyl-1-oxo-1-(((S)-1-oxo-3-((S)-2-oxopyrrolidin-3-yl)propan-2-yl)amino)pentan-2-yl)carbamate]	0.153 µM
CC(C)C[C@H](NC(=O)N(Cc1ccccc1)C1CCN(C(=O)OC(C)(C)C)CC1)C(=O)N[C@@H](C[C@@H]1CCNC1=O)C(O)S(=O)(=O)O (stereo partly drawn) [Compound C40, (2S)-2-((S)-2-(3-benzyl-3-(1-(tert-butoxycarbonyl)piperidin-4-yl)ureido)-4-methylpentanamido)-1-hydroxy-3-((S)-2-oxopyrrolidin-3-yl)propane-1-sulfonate]	0.173 µM and 0.221 µM
